# Data from a melting point compilation (Tetko et al.; mined from patent text by program, amines drawn as free bases though some values may be those of a salt).
row,melting point [°C],SMILES
1,256 to 257,COc1ccc2cncc(CCl)c2c1
2,186 to 188,CCCc1nc2c(N)nc(C)c(C)c2n1CCCS(=O)(=O)c1ccc(Cl)cc1
3,124 to 127,CSc1ncc(CO)c(N)n1
4,134,O=S1(=O)CCCSC(S)=N1
5,273,N#CC1=C(C2CCCCC2=O)Nc2n[nH]cc2C1c1cccc(C#N)c1Br (centres undefined)
6,223 to 224,Cc1nc2c(s1)-c1nc(Nc3ccccc3)ncc1CC2
7,167 to 168,N#Cc1cn(-c2ccc(C(F)(F)F)cc2)c(=O)n(SC(Cl)(Cl)Cl)c1=O
8,175 to 177,O=C(CCl)c1ccc2c(c1)Cc1cc(C(=O)CCl)ccc1S2
9,158 to 161,CCCCn1c(C)nc(N2CCc3ccccc3CC2)c([N+](=O)[O-])c1=O
10,199 to 201,CNc1nc(-c2cccc(-n3cccc3)c2)c2cc(OC)c(OC)cc2n1
11,128 to 129,Cc1cc(C(C)(C)C)c(Cl)c(C)c1SSc1c(C)cc(C(C)(C)C)c(Cl)c1C
12,60 to 61.5,CN(C)CCCNc1ccc([N+](=O)[O-])cc1
13,245,O=C1OC(=O)c2c1ccc1ccc3ccccc3c21
14,69 to 70,C=CCOc1ccc(C[C@H](NC(C)=O)C(=O)OCC)cc1
15,103 to 104,COC(=O)C(c1ccc(Cl)cc1)c1ncc(C(F)(F)F)cc1Cl (centres undefined)
16,158 to 160,O=[N+]([O-])c1ccc(Nc2cccc(O)c2)cc1
17,299 to 302,CCCn1cc2c(C3C(=O)Nc4ccc(C#N)cc43)nc(NCc3ccncc3)nc2n1 (centres undefined)
18,67 to 68,Cc1nc(N)nc(N)c1CCC(C)c1cccc(-c2ccc(C(F)(F)F)cc2)c1 (centres undefined)
19,83 to 85,CCCc1c(OCCCOc2ccc(C(C)=O)c(OCc3ccccc3)c2CCC)ccc2c1OC(CO)CC2 (centres undefined)
20,159 to 160,O=C1NC(=O)c2ccc(-c3ccc(CN4CCCCC4)cc3)cc2C1=CNc1ccc(CN2CCCCC2)cc1
21,92 to 94,COC(=O)C(CO)NS(=O)(=O)c1ccc(OC)cc1 (centres undefined)
22,208 to 211,NC(=O)C1C(CSSCC2C(C(N)=O)N(Cc3ccccc3)C(=O)N2Cc2ccccc2)N(Cc2ccccc2)C(=O)N1Cc1ccccc1 (centres undefined)
23,84 to 85,COc1cccc(CC(=O)O)c1OCc1cc(OCc2ccc3ccccc3n2)n(C(C)C)n1
24,122 to 124,S=C(NCCCCN(Cc1ccc(Br)cc1)c1ccccn1)NCCCn1ccnc1

row,melting point [°C],SMILES
1,204 to 205,CN1NN=C(c2ccc3c(c2)S(=O)(=O)c2ccccc2C3=O)N1
2,85 to 87,Clc1ccc(CN2CCN(CCN3CCCCC3)CC2c2ccccc2)cc1 (centres undefined)
3,102,CCN(CC)c1nc2ccnn2c2ncccc12
4,256 to 257,O=c1[nH]c2cc(Cl)ccc2n1-c1cc(Cl)ccc1O
5,90 to 92,CCCCCCNc1nc(-c2ccccc2)c(-c2ccc(=O)n(C(C)C)n2)s1
6,116 to 118,OC(CN1CCN(c2ccccn2)CC1)(Cn1cncn1)c1ccc(Cl)cc1Cl (centres undefined)
7,235 to 237,COc1cc2oc(=O)c(CCN3CCN(c4ccccc4OC)CC3)c(C)c2cc1O
8,156 to 157,COc1cc2cc(-c3ccccc3C)sc2c(Cl)c1Cl
9,68,C#Cc1ccc2c(c1)C(CCOCCOCCOC)(CCOCCOCCOC)c1cc(C#C)ccc1-2
10,76 to 88,OC(c1ccc(OC(F)(F)F)cc1)(c1ccc(OC(F)(F)F)cc1)C1CCN(Cc2c[nH]c3cccc(F)c23)CC1
11,138 to 142,CCCCCCCC(=O)C(CC(=O)OCC)C(=O)OCC (centres undefined)
12,134 to 135,CSc1nc(NCc2ccc(-c3ccccc3)cc2)n2ncc(C(C)C)c2n1
13,203 to 204,Cc1nc2c(s1)-c1nc(N(C)c3cccc([N+](=O)[O-])c3)ncc1CC2
14,173 to 175,COC(=O)c1ccc(CN2CCCc3cc4c(cc32)C(C)(C)CCC4(C)C)cc1
15,250,CC(=O)Oc1ccc2nc(C(N)=O)nc(O)c2c1
16,147 to 150,Cc1cn(-c2cccc(C(F)(F)F)c2)nc(-c2ccnn2-c2ccccc2)c1=O
17,57 to 59,CNN(Cc1ccccc1N)c1ccccc1
18,97 to 98,CSCCC(=O)N(C)c1sc(-c2cncc(F)c2)nc1C#N
19,150 to 152,COc1ccc(S(=O)(=O)c2cnc(C)nc2Cc2c(C)cc(C)cc2C)cc1
20,51 to 61,CCc1cn(C2CC(O)C(CNCC(C)Oc3ccc(Cl)cc3Cl)O2)c(=O)[nH]c1=O (mixture of isomers)
21,100 to 111,c1nc(Nc2ccc3[nH]ccc3c2)c2sc(-c3ccc(CNCCN4CCOCC4)cc3)cc2n1
22,154 to 155,C=CCOC(=O)Nc1c(C#N)cnn1-c1ccc(Cl)c(Cl)c1Cl
23,245 to 246,Cc1cnc(C(=O)c2[nH]c3ccc(Cl)cc3c2CC(=O)O)cc1C
24,267 to 270,O=c1[nH]c2cscc2c(=O)c2cscc12

row,melting point [°C],SMILES
1,204 to 208,Nc1nccnc1C(=O)NCCc1ncc[nH]1
2,> 250,Fc1ccc(Nc2ncnc3cc(-c4ccco4)ccc23)cc1Cl
3,241,CN1CCN(c2ccc(C(=O)N[C@H]3CC[C@H](CCN4CCC(c5cccc6c5CCO6)CC4)CC3)cc2)CC1
4,208 to 209,COc1ccc(-c2cc3ccccc3[nH]2)cc1N
5,192 to 196,COC(=O)C=Cc1cnc(SC)nc1N
6,105 to 108,Cc1cc(SCc2cccc3nn(-c4ccc(C(F)(F)F)cc4)cc23)ccc1OCC(=O)O
7,107 to 108,Cc1cc(C(C)(C)C)cc(C=NO)c1O
8,185,C=C(C)OC(=O)N1c2ccc(C)cc2NC(=O)C1(C)C
9,171 to 174,COC(=O)c1cccc(Cn2ccc(OCc3ccc(F)cc3F)c(Cl)c2=O)c1F
10,237 to 240,Cc1cc(C(N)=O)ncc1C(c1c(F)ccc(F)c1F)S(=O)(=O)c1ccc2ccoc2c1 (centres undefined)
11,136 to 138,CC1(C)C=C(C#N)c2cc3nonc3cc2O1
12,111 to 112,CC1(C)CCC(C)(C)c2cc(C(=O)COc3ccc(C=O)c(O)c3)ccc21
13,160 to 161,Cc1ccc(SCCC(=O)c2cc(O)c(O)c([N+](=O)[O-])c2)cc1
14,151 to 153,COc1cc(OC)c(C(=O)/C=C/C(=O)O)c(OC)c1
15,75,CC(C(=O)OCc1ccccc1)c1cccc(NC(=O)NCC(=O)N2[C@@H](c3ccccc3)CC[C@H]2C(=O)OC(C)(C)C)c1 (some centres undefined)
16,185 to 186,N#Cc1cc(C(=O)c2ccccc2)ccc1O
17,180 to 181,Cc1ccc(C2c3c(C)c(N4CCN(c5ccc(C(F)(F)F)cc5)CC4)c(C)c(C)c3OC2(C)C)cc1 (centres undefined)
18,195 to 196,S=C=Nc1ccc(Nc2ccncc2)cc1
19,131 to 133,Cc1cc2c(cc1Cl)C(c1ccccc1)(N1CCOCC1)ON2C(C)(C)C (centres undefined)
20,138 to 139,O=C1OC2(CCc3ccccc32)c2ccccc21 (centres undefined)
21,131,CN(C)C(=O)NC1(Cc2ccccc2)CCN(Cc2ccccc2)CC1
22,192 to 196,O=C(O)c1cc(Oc2ccc(Cl)cc2Cl)c(O)cc1Cl
23,45,CCCC1(C)CC(=O)c2ccc(OCc3ccccc3)c(C)c2O1 (centres undefined)
24,156 to 157,CC(C)(CNc1ccnc2cc(Cl)ccc12)NCc1cccc(C(F)(F)F)c1

row,melting point [°C],SMILES
1,148 to 151,O=C1c2ccccc2-c2ccccc2C1(O)C(F)(F)F (centres undefined)
2,187 to 188,Oc1ccc(F)cc1-c1cc(-c2ccc(-c3ccccc3)cc2)cc(-c2ccc3ccccc3c2)n1
3,181 to 183,Nc1ccc(CON=Cc2csc(N)n2)cc1
4,200,Cc1ccc([C@@H]2CO[C@@H](c3ccc(C)cc3)CO2)cc1
5,130 to 133,CCNC(=O)NCCNc1nc(-c2ccc(F)cc2C)c2ccc(=O)n(-c3c(F)cccc3F)c2n1
6,37 to 39,COC(=O)C(C)c1cccc2c(=O)c3ccccc3ccc12 (centres undefined)
7,141 to 142,Cc1oc(-c2ccc3ccccc3c2)nc1COc1ccc(CCCC2OCCO2)cc1
8,69 to 71,O=NN(CCCl)C(=O)NC1OC(CO)C(O)C1O (centres undefined)
9,155,COC(=O)c1cc(I)c(F)c(I)c1Cl
10,160 to 164,Cc1nc2nccc(Cl)c2cc1Br
11,94,CCCC12CCC(c3ccc(Cl)cc3)(OC1)OC2
12,99 to 110,COc1cc(OCc2ccccn2)ccc1/C=C/c1cc(/C=C/c2cccc3cc[nH]c23)n[nH]1
13,105 to 110,COc1ccc(C(OC(C)=O)c2cc(OCc3ccccc3)ccc2OC)nc1 (centres undefined)
14,122 to 124,O=C(O)CCCCc1nc2c(F)c(F)cc(F)c2s1
15,148 to 149,COc1ccccc1N1CCN(CCCNC(=O)c2cc(OC(C)=O)cc3c(=O)c(C)c(-c4ccccc4)oc23)CC1
16,118 to 120,O=[N+]([O-])c1oc2ccc(NCc3ccccc3)cc2c1-c1ccccc1
17,> 300,O=C(O)c1cn(-c2ccc(F)cc2)c2c(F)c(N3Cc4ccc(F)cc4C3)c(F)cc2c1=O
18,218 to 219,Cc1cccc(C)c1NC(=O)CCS(=O)(=O)c1cc(C(C)(C)C)c(O)c(C(C)(C)C)c1
19,153 to 158,Cc1oncc1C(=O)Nc1ccc(-n2nc(C3CC3)cc2C2CC2)cc1
20,224 to 225,O=C1c2ccccc2C(=O)N1CC(=O)N1c2ccccc2N(Cc2ccc([N+](=O)[O-])cc2)C(=O)[C@H]2CCC[C@H]21 (relative stereo)
21,114 to 115,CSc1ncc(F)c(N)n1
22,177 to 179,Cc1nc(N2CCc3ccccc3CC2)c(C#N)c(=O)n1C1CC1
23,69 to 75,CCNc1nc(N=[N+]=[N-])nc(NC(C)C(F)(F)F)n1 (centres undefined)

row,SMILES,melting point [°C]
1,CC(=O)Nc1ccc(C2CN(C)Cc3c(Cl)cc(Cl)cc32)cc1 (centres undefined),205 to 206
2,CCOC(=O)C1CCC2(C)C(=CC(=O)C3C4CCC(=O)C4(C)CCC32)C1 (centres undefined),187 to 188
3,Cc1nnc2n1-c1sc(CC(=O)N3CCOCC3)cc1C(c1ccccc1Cl)=NC2C (centres undefined),126 to 129
4,Cc1ncc2n1-c1ccc(Cl)cc1C(c1ccccc1)=NC2,187 to 188
